Source: patent EP0778266A1, “5-Amino-6-cyclohexyl-4-hydroxy-hexanamide derivatives as inhibitors of beta-amyloid protein production” (BRISTOL-MYERS SQUIBB COMPANY, priority 1995, dated 1997)

System: γ-Secretase
Experiment: Cell-based ELISA assay of β-AP production by transfected H4 cells expressing β-APP (Swedish variant); reported as inhibition of γ-secretase
Conditions: β-AP in conditioned medium of transfected H4 (human neuroglioma) cells by ELISA, approximately 16 hours incubation, dose response
Description: Production and detection of β-AP made by cells in culture. The use of transfected H4 (human neuroglioma) cells stably expressing constructs containing wild-type and mutant forms of β-APP have been used to identify inhibitors of β-AP production. The Swedish variant of β-APP produces 5-7 fold more β-AP than the wild type and is typically used due to its enhanced signal. […] The capture antibody is typically a mouse monoclonal (lgG1/kβ-APPa). The antibody recognizes the carboxyl terminal epitope of β-AP. The specificity of the capture antibody ensures measurement of β-AP without interference by other secreted β-APP fragments that share amino acid sequence (β-AP1-16) with β-AP. […] In the cell-based assay conditioned medium from H4 cells is tested by ELISA for the quantity of β-AP present. […]
A typical ELISA-based assay requires plating of the transfected cells at a density sufficient for the rapid detection of the secreted β-AP (experimentally predetermined for a particular stable cell population) in a 96-well format. […] Incubation of the cells with the test agent will continue for approximately 16 hours at which time equal aliquots of media from each sample well is removed and placed into a previously prepared ELISA plate for β-AP quantitation. The ELISA is carried out in a manner described by others (Haass, et al., 1992; Hawlow and Lane, 1988) and the β-AP signal quantitated. […]

## [αS-(αR*, γR*, δR*)] N-(2,2-dimethylpropyl)-γ-hydroxy-α-(1-methylethyl)-δ-[(4-methylpentyl)amino]cyclohexanehexanamide hydrochloride. [Example 31]
  Activity Rating: +++ (+++ ⇐ 10)
